According to US7569587B2, “Antibacterial mutilins” (Nabriva Therapeutics AG, priority 2000, dated 2009):

Tested on: Staphylococcus
Assay: Systemic infections of mice (Handbook of animal models of infection)
Type: in vivo
Details: parenteral or oral administration, Probit analysis
From the text: The active compounds of the present invention show e.g. activity in systemic infections of mice determined according to the Handbook of animal models of infection.
ED50=Effective dosage in mg/kg body weight per application by which 50% of the treated animals are protected from death; calculated by Probit analysis (n=8 animals/group).

| Structure (SMILES) | ED50 (dosage by which 50% of the treated animals are protected from death) |
| --- | --- |
| C=CC1(C)CC(OC(=O)CS[C@H]2CCCN(C(=O)[C@H](N)C(C)C)C2)C2(C)C(C)CCC3(CCC(=O)C32)C(C)C1O (stereo partly drawn) [Example 1] | ~7.0 mg/kg body weight |
| C=CC1(C)CC(OC(=O)CSC2CCN(C(=O)[C@H](N)C(C)C)C2)C2(C)C(C)CCC3(CCC(=O)C32)C(C)C1O (stereo partly drawn) [Example 5, 14-O—[(N-(3-methyl-2(R)-amino-butyryl)-pyrrolidine-3-yl)-sulfanylacetyl]-mutilin] | about 11.0 mg/kg body weight |
| C=CC1(C)CC(OC(=O)CSC2CCN(C(=O)[C@H](N)Cc3c[nH]cn3)C2)C2(C)C(C)CCC3(CCC(=O)C32)C(C)C1O (stereo partly drawn) [Example 6, 4-O—[(N—(R)-histidinyl-pyrrolidin-3-yl)sulfanylacetyl]mutilin] | about 11.0 mg/kg body weight |
